The supplement of paper PMC9013687

Tests used:
Danio rerio embryo [1] = details: exposure time: 4 dpf
Protocol: (§1)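 Zebrafish embryos (UFZ-OBI strain) were exposed from 2 hpf for 48 h (2 dpf) or 96 h (4 dpf) at 28 °C; spontaneous tail coiling was scored at 25 hpf. Morphological features from automated image analysis (FishInspector), heart rate and locomotor response were fitted with drc models. Quantal endpoints were dichotomised at 2.5 SD from controls and fitted with a log-logistic model; heart rate, pigmentation and STC were normalised to the replicate control mean. Betamethasone was tested as betamethasone dipropionate, diflorasone as diflorasone diacetate.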

Danio rerio embryo [2] = test system: Danio rerio embryo
Protocol: as §1

Danio rerio embryo [3] = details: exposure time: 4 dpf; remark: listed apart in the source
Protocol: as §1

Danio rerio embryo [4] = assay: EC50 Eye size_Decrease; details: exposure time: 2 dpf
Protocol: as §1

Danio rerio embryo [5] = assay: EC50 Curvature_Increase
Protocol: as §1

Danio rerio embryo [6] = assay: EC50 Head size_Decrease; details: exposure time: 2 dpf
Protocol: as §1

Danio rerio embryo [7] = assay: EC50 Body length_Decrease
Protocol: as §1

Danio rerio embryo [8] = assay: EC50 Bladder size_Decrease; details: exposure time: 4 dpf
Protocol: as §1

Danio rerio embryo [9] = assay: EC50 Pericard size_Increase; details: exposure time: 2 dpf
Protocol: as §1

Danio rerio embryo [10] = assay: EC50 Yolk sac size_Increase
Protocol: as §1

Danio rerio embryo [11] = assay: EC50 Head trunk angle_Decrease; details: exposure time: 2 dpf
Protocol: as §1

Danio rerio embryo [12] = assay: EC50 Eye-jaw distance_Decrease; details: exposure time: 4 dpf
Protocol: as §1

Danio rerio embryo [13] = assay: EC10 LMR dark; higher = less potent; details: exposure time: 4 dpf
Protocol: as §1

Danio rerio embryo [14] = assay: EC20 LMR dark; higher = less potent; details: exposure time: 4 dpf
Protocol: as §1

Danio rerio embryo [15] = assay: EC10 Lack of SB; higher = less potent; details: exposure time: 4 dpf
Protocol: as §1

Danio rerio embryo [16] = assay: EC20 Lack of SB; higher = less potent; details: exposure time: 4 dpf
Protocol: as §1

Danio rerio embryo [17] = assay: EC20 Any effect; higher = less potent
Protocol: as §1

Danio rerio embryo [18] = assay: EC10 Any effect; higher = less potent
Protocol: as §1

Danio rerio embryo [19] = assay: EC10 STC decrease; higher = less potent; details: exposure time: 25 h
Protocol: as §1

Danio rerio embryo [20] = assay: EC20 STC decrease; higher = less potent; details: exposure time: 25 h
Protocol: as §1

Danio rerio embryo [21] = assay: EC20 Eye size_Decrease; higher = less potent; details: exposure time: 2 dpf
Protocol: as §1

## CC1=C(/C=C/C(C)=C/C=C/C(C)=C/C(=O)O)C(C)(C)CCC1 [all-trans retinoic acid]
Danio rerio embryo [1]
  EC50 Lack of SB: 20 nM
Danio rerio embryo [2]; exposure time: 2 dpf
  EC50 Any effect: 9 nM
Danio rerio embryo [2]; exposure time: 4 dpf
  EC50 Any effect: 11 nM
  EC50 LMR ligth decrease: 27.4 nM
Danio rerio embryo [2]; exposure time: 25 h
  EC50 STC decrease: 76 nM
Danio rerio embryo [3]
  EC50 LMR dark: 36 nM
Danio rerio embryo [4]
  EC50 Eye size Decrease: 38 nM
Danio rerio embryo [5]; exposure time: 2 dpf
  EC50 Curvature Increase: 13 nM
Danio rerio embryo [5]; exposure time: 4 dpf
  EC50 Curvature Increase: 10 nM
Danio rerio embryo [6]
  EC50 Head size Decrease: 42 nM
Danio rerio embryo [7]; exposure time: 2 dpf
  EC50 Body length Decrease: 36 nM
Danio rerio embryo [7]; exposure time: 4 dpf
  EC50 Body length Decrease: 48 nM
Danio rerio embryo [8]
  EC50 Bladder size Decrease: 17 nM
Danio rerio embryo [9]
  EC50 Pericard size Increase: 39 nM
Danio rerio embryo [10]; exposure time: 2 dpf
  EC50 Yolk sac size Increase: 45 nM
Danio rerio embryo [10]; exposure time: 4 dpf
  EC50 Yolk sac size Increase: 39 nM
Danio rerio embryo [11]
  EC50 Head trunk angle Decrease: 11 nM
Danio rerio embryo [12]
  EC50 Eye-jaw distance Decrease: 33 nM
Danio rerio embryo [13]
  EC10 LMR dark: 16 nM
Danio rerio embryo [14]
  EC20 LMR dark: 22 nM
Danio rerio embryo [15]
  EC10 Lack of SB: 12 nM
Danio rerio embryo [16]
  EC20 Lack of SB: 15 nM
Danio rerio embryo [17]; exposure time: 2 dpf
  EC20 Any effect: 8 nM
Danio rerio embryo [17]; exposure time: 4 dpf
  EC20 Any effect: 7 nM
Danio rerio embryo [18]; exposure time: 2 dpf
  EC10 Any effect: 8 nM
Danio rerio embryo [18]; exposure time: 4 dpf
  EC10 Any effect: 6 nM
Danio rerio embryo [19]
  EC10 STC decrease: 1.22 nM
Danio rerio embryo [20]
  EC20 STC decrease: 5.6 nM
Danio rerio embryo [21]
  EC20 Eye size Decrease: 36 nM
